Measured values: ChEMBL document CHEMBL3044839, “Bisdesmosidic saponins from Securidaca longepedunculata roots: evaluation of deterrency and toxicity to Coleopteran storage pests” (2009)
Active and inactive are the calls of the source. No cut-off for these calls is given here.

Experiments:
Callosobruchus maculatus [1] = assay: Insecticidal activity against Callosobruchus maculatus in compound pretreated stored cowpea commodities assessed as decrease in number of adults emerging in F1 generation at 2.5 mg; type: functional, organism-based
Callosobruchus maculatus [2] = assay: Insecticidal activity against Callosobruchus maculatus in compound pretreated stored cowpea commodities assessed as decrease in egg hatching on the surface of seeds at 2.5 mg; type: functional, organism-based
Callosobruchus maculatus [3] = assay: Insecticidal activity against adult Callosobruchus maculatus in compound pretreated stored cowpea commodities assessed as decrease in number of oviposted eggs on the surface of seeds at 2.5 mg by choice bioassay; type: functional, organism-based
Sitophilus zeamais [4] = assay: Insecticidal activity against adult Sitophilus zeamais in compound pretreated stored maize commodities assessed as mortality at 2.5 mg measured after 2 weeks; type: functional, organism-based
Sitophilus zeamais [5] = assay: Insecticidal activity against adult Sitophilus zeamais in compound pretreated stored maize commodities assessed as decrease in number of damaged seeds at 2.5 mg measured after 2 weeks (reference value: >95%); type: functional; parameters: scale not given: the % may be the effect or the level left

With `COc1ccc(C=CC(=O)O[C@@H]2[C@H](O)[C@@H](O[C@@H]3O[C@@H](C)[C@H](O[C@@H]4OC[C@@H](O)[C@H](O[C@@H]5OC[C@H](O)[C@H](O)[C@H]5O)[C@H]4O)[C@@H](O[C@@H]4OC[C@](O)(CO)[C@H]4O)[C@H]3O)[C@H](OC(=O)[C@]34CCC(C)(C)C[C@H]3C3=CC[C@@H]5[C@@]6(C)C[C@H](O)[C@H](O[C@@H]7O[C@H](CO)[C@@H](O)[C@H](O)[C@H]7O)[C@@](C)(C(=O)O)[C@@H]6CC[C@@]5(C)[C@]3(C)CC4)O[C@@H]2C)cc1` the Activity (Callosobruchus maculatus [1]) was “Active”, the Activity (Callosobruchus maculatus [2]) was “Active” and the Activity (Callosobruchus maculatus [3]) was “Active”. For the same compound, the mortality (Sitophilus zeamais [4]) was “Active” and the Activity (Sitophilus zeamais [5]) was <35%.
